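Results reflect a 48-hour exposure of cells in 96-well plates to compound at five concentrations. GI50 = concentration required for 50% inhibition of growth.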 Activity calls are given as the source filed them. Rule as the data show it: active = GI50 up to about 1.1 µM and inactive = higher.

Holding throughout (test): NCI tumour cell line growth inhibition, 48 h
Assay [1] deals with SF-539.
The test system of assay [2] is A498.
The test system of assay [3] is MDA-MB-231.
The subject of assay [4] is MDA-N.
The subject of assay [5] is HL-60.
The subject of assay [6] is SW-620.
The subject of assay [7] is RXF 393.
Assay [8] deals with NCI-H226.
Assay [9] concerns OVCAR-8.
For assay [10], the system named is NCI-H460.
Assay [11] relates to OVCAR-4.
Assay [12] has as its system EKVX.
Assay [13] relates to SF-295.
Assay [14] has as its system LOX IMVI.
The test system of assay [15] is HCT-15.
The subject of assay [16] is NCI/ADR-RES.
The subject of assay [17] is MCF7.
Assay [18] deals with CCRF-CEM.
Assay [19] concerns MOLT-4.
In assay [20] the test system is HOP-62.

As to `COc1cccc2c(=O)oc(-c3ccccc3C)nc12`, the GI50 in assay [1] is 25.5 µM (inactive); in assay [2], > 100 µM (inactive); in assay [3] it was 63.7 µM (inactive); in assay [4] it was 19.8 µM (inactive); in assay [5], 32 µM (inactive); in assay [6], 40.6 µM (inactive). In addition, the GI50 is 30 µM (inactive) in [7]; 19.5 µM (inactive) in assay [8]; 48.8 µM (inactive) in [9]; 56.9 µM (inactive) in [10]; 22.7 µM (inactive) in assay [11]; > 100 µM (inactive) in assay [12]. The GI50 in assay [13] was 42.6 µM (inactive); in assay [14], 18.3 µM (inactive); in [15], 43.9 µM; in assay [16], 29.2 µM (inactive); in assay [17], 33.7 µM (inactive); in assay [18], 25.9 µM (inactive). The GI50 in assay [19] was 26.7 µM (inactive); in [20], 27.3 µM (inactive).
Take `COC1=CC(=O)c2c(O)c3c(c(O)c2C1=O)C[C@](C)(O)C[C@@H]3O`: the GI50 is 3.08 µM (inactive) in [1]; 7.66 µM (inactive) in assay [2]; 7.74 µM (inactive) in [3]; 1.88 µM (inactive) in assay [4]; 1.62 µM (inactive) in assay [5]; 3.92 µM (inactive) in assay [6]. Besides, the GI50 was 5.3 µM (inactive) in [7]; 23.9 µM (inactive) in assay [8]; 4.07 µM (inactive) in [9]; 1.65 µM (inactive) in assay [10]; 3.72 µM (inactive) in [11]; 8.04 µM (inactive) in [12]. For the same compound, the GI50 is 3.51 µM (inactive) in assay [13]; 2.54 µM (inactive) in [14]; 4.01 µM in assay [15]; 3.78 µM (inactive) in assay [16]; 4.89 µM (inactive) in assay [17]; 5.7 µM (inactive) in assay [18]. In addition, the results for the GI50 in [19] and in assay [20] were 7.8 µM (inactive) and 8.45 µM (inactive), respectively.

These data come from ChEMBL document CHEMBL1201862, “PubChem BioAssay data set” (2004).
